# Test results taken from patent US20060263453A1, “Methods and compositions for modulating glutamate dehydrogenase” (priority 2004, published 2006).
# Key:
# islets = assay: [U-14C]-glutamine oxidation in islets; type: cell-based, rat
# Experimental: In a first experiment, a batch of 100 islets were incubated with glucose-free Krebs-Ringer bicarbonate buffer, as described herein, containing 20 μM EGCG or 20 μM EGC and 2 mM glutamine for 60 minutes. The islets were then incubated in the presence of varying concentrations of BCH (shown in FIG. 7A) for 60 minutes, and for an additional 60 minutes in the presence of 2 mCi [U-^14C]-glutamine (NEN-Life Science Products, UK). Next, [U-^14C]-glutamine oxidation in the incubated islets was measured. A trap filter was placed in each tightly sealed glass tube of the perifusion apparatus to collect the ^14CO2 produced by the islets, and the amount of radioactivity was determined by liquid scintillation counting. The results are summarized in FIG. 7A, and are presented as means±S.E. from 4 separate experiments. […] The islets were then incubated in the presence of 10 mM BCH (or no BCH—to measure “baseline” glutamine oxidation levels) for 60 minutes. The islets were then incubated for an additional 60 minutes in the presence of 2 mCi [U-^14C]-glutamine (NEN-Life Science Products, UK). Next, [U-^14C]-glutamine oxidation in the incubated islets was measured, as described above.
# Bovine GDH (bGDH) = target: T1, Bovine GDH (bGDH) (Bos taurus, UniProt P00366); assay: reductive amination reaction catalyzed by bovine GDH (NADH absorbance at 340 nm); type: biochemical; details: FIG. 1A
# T1 construct: purchased Sigma Aldrich Chemical Company (St. Louis, Mo.)
# T1 sequence (P00366 58-558): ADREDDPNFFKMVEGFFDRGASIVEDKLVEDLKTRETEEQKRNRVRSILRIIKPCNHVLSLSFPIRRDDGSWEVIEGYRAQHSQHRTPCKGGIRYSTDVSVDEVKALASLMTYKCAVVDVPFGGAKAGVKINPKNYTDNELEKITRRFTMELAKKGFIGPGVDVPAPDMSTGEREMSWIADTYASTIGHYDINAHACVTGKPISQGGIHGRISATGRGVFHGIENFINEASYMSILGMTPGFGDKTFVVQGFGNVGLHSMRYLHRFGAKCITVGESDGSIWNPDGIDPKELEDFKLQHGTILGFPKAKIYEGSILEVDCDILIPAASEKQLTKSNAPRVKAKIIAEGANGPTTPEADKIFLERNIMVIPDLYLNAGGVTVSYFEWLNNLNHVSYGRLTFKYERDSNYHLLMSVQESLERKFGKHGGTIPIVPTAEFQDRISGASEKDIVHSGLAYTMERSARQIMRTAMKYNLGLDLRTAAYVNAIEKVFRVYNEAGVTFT
# Experimental: In this Example, the effects of epigallocatechin gallate (EGCG), epigallocatechin (EGC), epicatechin gallate (ECG), and epicatechin (EC) from Camellia sinensis on GDH activity were tested. Bovine GDH (bGDH) was used in this Example, which was obtained as an aqueous (NH4)2SO4 suspension from Sigma Aldrich Chemical Company (St. Louis, Mo.).
# First, aliquots of GDH were extensively dialyzed against 0.1M sodium phosphate buffer, pH 7.0, which contained 1 mM ethylenediaminetetraacetic acid (EDTA). The enzyme concentrations were adjusted to 1 mg/ml and the amount of enzyme added to the reaction mixture, for kinetic analysis, was adjusted to yield optimal steady state velocity measurements. All solutions were made immediately prior to use. Enzyme assays were performed by monitoring reduced coenzyme absorbance at 340 nm using a Shimadzu UV-1601 spectrophotometer. The reductive amination reactions were performed in 3 mL volumes at pH 7.0 in the presence of 0.1 mM nicotinamide adenine dinucleotide (NADH), 50 mM NH4Cl, and 5 mM 2-oxoglutarate. The rate of NADH oxidation was calculated using an extinction coefficient of 6.22 mM^−1 cm^−1.
# rat islets [1] = assay: BCH-stimulated insulin secretion and oxygen consumption in perifused islets; type: cell-based, Wistar rat; details: 20 μM
# Experimental: In this Example, the effects of EGCG and EGC on LSIS were measured, while simultaneously monitoring respiration rates. More particularly, the effects of EGCG (20 μM) and EGC (20 μM) on BCH-stimulated insulin secretion were measured. First, 1000 adult male Wistar rat islets were isolated as described above and were cultured on a glass perfusion chamber in 10 mM glucose for 3 days. Next, the islets were perifused in an oxygen consumption measurement apparatus containing BCH, along with 0 μM EGCG and 0 μM EGC, 20 μM EGCG, or 20 μM EGC. The perifusion apparatus used in these Examples consisted of a peristaltic pump, a water bath (37° C.), a gas exchanger (artificial lung: media flowed through the thin-walled silastic tubing loosely coiled in a glass jar that contained 20% O2 and 5% CO2 balanced with N2), and fraction collector. All transfer lines were insulated. After the system was provided with 20 μM EGCG or 20 μM EGC, oxygen partial pressure was recorded every 10 seconds by phosphorescence lifetimes of an oxygen-sensitive porphyrin (palladium-mesotetra; 4-carboxyphenyl porphyrin dendrimer). The dye molecules were excited with pulses at 524 nm from a UV lead and emission was measured at 690 nm. The inflow oxygen tension was measured in the absence of islets in the chamber before and after each experiment. The perifusate was a Krebs buffer (pH 7.4) containing 2.2 mM Ca^2+, 1% bovine serum albumin equilibrated with 20% O2 and 5% CO2 balanced with N2. The flow rate was […] and samples were collected every 2 minutes for insulin measurements by radioimmunoassay. The results are summarized in FIG. 6, and are presented as means±S.E. for 1000 islets from 3 separate experiments for EGCG (and from 1 experiment for EGC). Due to the high density of data, S.E. is only shown in every 20 samples.
# rat islets [2] = assay: glucose stimulated insulin secretion (GSIS), short run-down (50 minutes), glucose ramp; type: cell-based; details: 20 μM, FIGS. 8A and 8B
# Experimental: In this Example, the effect of EGCG on glucose stimulated insulin secretion (GSIS) was examined. Isolated rat islets were cultured with 20 mM glucose (FIG. 8A) and 10 mM glucose (FIG. 8B) for 3 days, then perifused in the absence of glucose for 50 minutes and in the presence of 0 μM EGCG; 20 μM EGCG; or 20 μM EGC. Next, the islets were stimulated by a glucose ramp (0 to 25 mM, 0.5 mM/minute). Finally, the islets were exposed to 30 mM KCl. Insulin levels were measured every minute by radioimmunoassay. The results shown in FIG. 8A are presented as means±S.E. for 100 islets from 3 separate experiments (and means±S.E. for 100 islets from 1 experiment for FIG. 8B).
# rat islets [3] = assay: glucose stimulated insulin secretion in 120 minute run-down islets; type: cell-based
# Experimental: Under brief “run-down” conditions used for the above GSIS analysis, where glucose was removed from the cells for only […], the levels of high-energy metabolites (i.e., GTP and ATP) have not been depleted and these effectively shut down GDH activity. This, in turn, eliminated any effect GDH might have on insulin secretion. Therefore, the effects of EGCG were also tested on […] that had been “run-down” for a longer period of time (120 minutes) prior to glucose stimulation (FIG. 11). Specifically, isolated rat islets were cultured with 10 mM glucose for 3 days and then perifused in the absence of glucose and in the presence of 0 or 20 μM EGCG (or 20 μM EGC) for “run-down” periods of 120 minutes prior to stimulation with a glucose ramp (0 to 25 mM, 0.5 mM/minute). Finally, islets were exposed to 30 mM KCl. The insert highlighted the insulin secretion from time=120 minutes to 140 minutes.
# [4] = ethanol, DMSO, dimethyl formamide; cited from earlier work
structure (smiles),measurement,setting,value
"NC1(C(=O)O)CC2CCC1C2 (stereo not drawn) [BCH, beta-2-aminobicyclo[2.2.1]heptane-2-carboxylic acid, reference compound]",stimulation of glutamine oxidation,"islets; 100 islets, 2 mM glutamine, FIG. 7A",dose-dependently stimulated
"[N-]=[N+]=CC(=O)CC[C@H](N)C(=O)O [DON, 6-diazo-5-oxo-L-norleucine, reference compound]",effect on 10 mM BCH-stimulated glutamine oxidation,"islets; 3 mM glutamine, FIG. 7B, 7C",blocks glutaminolysis to levels lower than the unstimulated β-cells at high concentrations
"Oc1cc(O)c2c(c1)O[C@H](c1cc(O)c(O)c(O)c1)[C@H](O)C2 [EGC, epigallocatechin, reference compound]",potent inhibitor of GDH activity,Bovine GDH (bGDH),not
same,sensitization of the β-cells to BCH,rat islets [1],slight sensitization
same,effect on LSIS (BCH-induced insulin secretion),rat islets [1]; FIG. 6A,did not cause significant inhibition
same,effect on BCH-induced increase in respiration rates,rat islets [1]; FIG. 6B,nor did it have as strong of an effect on respiration as compared to EGCG
same,block of BCH stimulation of glutaminolysis (glutamine oxidation),"islets; 20 μM, 2 mM glutamine, FIG. 7A",not
same,effect on GSIS,rat islets [2],neither EGC nor EGCG affected
same,potentiation of GSIS,"rat islets [3]; 20 μM, 120 minute run-down, FIG. 11",not
same,effect on KCl-stimulated release of insulin,rat islets [3]; 30 mM KCl,neither EGCG or EGC affected
same,sensitization of the cells at low glucose concentrations,"rat islets [3]; FIG. 11, inset",slightly sensitize
"O=C(O[C@@H]1Cc2c(O)cc(O)cc2O[C@@H]1c1ccc(O)c(O)c1)c1cc(O)c(O)c(O)c1 [ECG, (2R,3R)-2-(3,4-Dihydroxyphenyl)-3,4-dihydro-1 (2H)-benzopyran-3,5,7-triol 3-(3,4,5-trihydroxybenzoate)]",potent inhibitor of GDH activity,Bovine GDH (bGDH),potent inhibitors
same,soluble in organic solvents,[4],soluble
